Assay results: patent US10238689B2, “Methods for combating bacterial infections by killing persister cells with mitomycin C and/or cisplatin” (THE PENN STATE RESEARCH FOUNDATION, priority 2015, dated 2019)
Converted amounts (≈) assume the structure as drawn. “Also recorded” adds a separate entry of the source.

Key:
P. aeruginosa PA14 [1] = assay: Persister cell assay of pathogens (stationary phase), cisplatin vs MMC; format: cell-based, Pseudomonas aeruginosa; details: M9-glucose, 3 h
Experimental: For the persister cell assay of the pathogens, stationary-phase cells were used. Cultures of EHEC, P. aeruginosa, and S. aureus were prepared by a 1:1000 dilution of overnight grown cultures (LB medium for EHEC and P. aeruginosa, TSB for S. aureus) into fresh buffered LB medium for EHEC, M9-glucose for P. aeruginosa, and TSB for S. aureus and re-growing the cells to a turbidity of 3 to 4 at 600 nm for EHEC and S. aureus and growing for 24 h for P. aeruginosa. […]
NaClO4 (0.1M) was used as a solvent control. The viability of the cells was determined before and after cisplatin and MMC treatment. At least two independent cultures of each strain were used in each experiment.

[2] = system: E. coli K-12 BW25113 biofilm; assay: Biofilm dispersal assay (crystal violet); format: cell-based, Escherichia coli; details: 24 h static growth then 24 h with MMC, 30° C., M9-glucose
Experimental: Cultures were incubated for an additional 24 h with or without MMC. Biofilm levels were assayed using crystal violet staining as described previously (Lee, et al., Appl. Environ. Microbiol. 75, 1703 (2009)). Cell growth (turbidity at 620 nm) was used to normalize the total biofilm formation (absorbance at 540 nm). Data points were averaged from 15 replicate wells using at least two independent cultures.

[3] = system: P. aeruginosa PA14 and ΔtpbA biofilm cells; assay: Persister cell killing assay (biofilm cells); format: cell-based, Pseudomonas aeruginosa; details: 3 h, 5×MIC (cisplatin 250 μg/mL, MMC 10 μg/mL), limit of detection 100 cells/mL
Experimental: Persister cell killing assay (biofilm cells). […] Biofilm formation was assayed using the crystal violet staining method (Fletcher 1977) and was normalized by planktonic cell growth (turbidity at 620 nm) to account for any differences in growth rates. Data were averaged from 6 replicate wells using at least two independent cultures. […] NaClO4 (0.1M) was used as a solvent control for cisplatin. Cell viability in biofilms was assayed before and after the MMC and cisplatin treatments by removing supernatants (planktonic cells) from each well carefully, resuspending the biofilm in normal saline, and sonicating twice at 3W for 10 sec (Ueda and Wood 2009) to break apart the biofilm cells (due to the aggregative nature of P. aeruginosa ΔtpbA cells). Suspensions from multiple wells were combined to get an averaged sample. Then the cell suspensions were serially diluted in normal saline for a drop assay to check cell viability.

E. coli K-12 = assay: Planktonic antibiotic killing assay; format: cell-based, Escherichia coli; details: for fold more effective compared to ciprofloxacin: MMC 10 μg/mL vs ciprofloxacin 5 μg/mL
Experimental: In order to obtain exponential and mid-stationary phase cultures in LB, buffered LB or TSB, overnight cultures (16 h) were diluted 1:1000 in fresh medium and grown to the desired turbidity (i.e., a turbidity below 2 at 600 nm for exponential phase and a turbidity of 3 to 4 at 600 nm for mid-stationary phase). Late-stationary phase cultures in LB or buffered LB were obtained by growing overnight cultures (16 h). In order to obtain exponential and late-stationary phase cultures in M9-glucose, overnight cultures (16 h) were washed diluted 1:1000 in M9-glucose and grown for the desired period of time (i.e., a turbidity of 0.4 at 600 nm for exponential phase and 24 h of growth for late-stationary phase). Anaerobically grown cultures were maintained with ˜20% CO2, ˜79% N2, and ˜1% H2. In order to obtain rifampicin-induced persister cultures in buffered LB, overnight cultures (16 h) were diluted 1:1000 in fresh medium and grown to a turbidity of 0.8 at 600 nm. Cultures were exposed to rifampicin (100 μg/mL) for 30 min, centrifuged, and resuspended in fresh medium to remove the rifampicin.

P. aeruginosa PA14 [4] = assay: Minimum inhibitory concentration (MIC) assay; format: cell-based, Pseudomonas aeruginosa
Experimental: Minimum inhibitory concentration (MIC) assay. To determine the MICs of cisplatin for E. coli K-12, enterohemorrhagic E. coli (EHEC), S. aureus, and P. aeruginosa (PAO1 and PA14), freshly inoculated cultures (at least two independent cultures) in buffered LB (TSB for S. aureus) were incubated for 16 h with varying concentrations of cisplatin, and growth inhibition was assayed by the lack of turbidity.

pCA24N DNA = assay: In vitro crosslinking of DNA and denaturing agarose gel electrophoresis; format: biochemical; details: cisplatin 200 μM 1.5 h and 3.5 h; MMC 500 μg/mL; denaturing gel
Experimental: FIG. 10 provides data obtained from analysis of in vitro crosslinking of DNA with cisplatin and denaturing agarose gel electrophoresis. To produce the results shown in FIG. 10, pCA24N DNA (4518 bp) was in vitro crosslinked with cisplatin following a standard protocol. In brief, 2.2 μg of pCA24N DNA was linearized by HindIII digestion and cleaned using Wizard-SV gel and PCR clean-up system (Promega, Madison, Wis., USA). Linearized pCA24N was then treated with 200 μM (60 μg/mL) of cisplatin (Sigma-Aldrich, St. Louis, Mo., USA) for 1.5 h and 3.5 h at 37° C. The same amount of pCA24N DNA was also treated with an equivalent amount of 0.1M NaClO4 (solvent control for cisplatin) for 3.5 h at 37° C. Mitomycin C (MMC) was used as a positive control to compare types of crosslinking between cisplatin and MMC. For MMC, the same amount (2.2 μg) of pCA24N DNA was crosslinked essentially as in Example 1. In brief, linearized pCA24N DNA was treated with 500 μg/mL (1.5 mM) MMC or without MMC in 0.2 mM EDTA, 50 mM NaCl, and 5 mM Tris (pH 7.6) with Na2S2O4 added six times at 10 min intervals to reach a final concentration of 2.25 mM (1.5×molarity of MMC). The crosslinking reaction with MMC was performed anaerobically on ice and the reaction was stopped by exposure to air. […]

[5] = system: EHEC, S. aureus, and P. aeruginosa PAO1; format: cell-based; details: mono- and co-cultures in wound-like medium, 5 h treatment
Experimental: Overnight cultures (16 h) of EHEC, S. aureus, and P. aeruginosa PAO1 were grown in LB (TSB for S. aureus), washed with 0.85% NaCl solution, and diluted 1:1000 (as mono-cultures or co-cultures) in wound-like medium (WLM) (45% Bolton broth, 50% heparinized bovine plasma, and 5% laked horse blood). […] Samples containing S. aureus were coagulated, so sections of coagulated WLM were cut and weighed add appropriate amounts of antibiotics. Coagulated samples were triturated and vortexed to release cells prior to measuring cell viability.

[6] = 1×MIC (cisplatin 50 μg/mL, MMC 2 μg/mL)
[7] = 5×MIC (cisplatin 250 μg/mL, MMC 10 μg/mL)

Row | SMILES | survival (P. aeruginosa PA14 [1]; [6]) | survival (P. aeruginosa PA14 [1]; [7]) | biofilm dispersal [2] | cell viability of biofilm cells ([3]; PA14 biofilm) | cell viability of biofilm cells ([3]; ΔtpbA biofilm) | survival (E. coli K-12; anaerobic, late-stationary phase cells in rich medium (LB)) | susceptibility of exponential-phase cultures (E. coli K-12; exponential phase, M9-glucose) | fold more effective compared to ciprofloxacin (E. coli K-12; exponentially-growing cells, buffered LB, 3 h) | time course of killing (death curve) (E. coli K-12; late-stationary phase culture, buffered LB) | persistence (surviving population) (E. coli K-12; late-stationary phase, M9-glucose, MMC 10, ciprofloxacin 5, gentamicin 10 μg/mL, 3 h) | fold more effective compared to ciprofloxacin (E. coli K-12; mid-stationary-phase cells, buffered LB, 3 h) | effectiveness against rifampicin-induced persister cells (E. coli K-12; rifampicin pretreatment 100 μg/mL 30 min, buffered LB, MMC 10 μg/mL, ciprofloxacin 5 μg/mL, 3 h) | MIC (1×MIC) (P. aeruginosa PA14 [4]) [µg/mL] | type of DNA crosslinking in vitro (pCA24N DNA) | effectiveness under wound-like conditions [5]
1 | CO[C@@]12[C@H](COC(N)=O)C3=C(C(=O)C(C)=C(N)C3=O)N1C[C@@H]1N[C@@H]12 [MMC, mitomycin C] | 5±2% | 0.0056±0.0004% | does not cause biofilm dispersal; also recorded: did not cause biofilm dispersal | could not eradicate | could not eradicate | eradication beyond the limit of detection; also recorded: eradicated | similarly susceptible | 2,300 fold | does not show the bi-phasic death curve | eradication beyond the limit of detection; also recorded: eradicated cells | 150,000 fold | highly effective | 2 (≈ 5.98 µM) | crosslinks inter-strand DNA | eradicates pathogens; also recorded: more effective than ciprofloxacin and ampicillin
2 | N.N.[Cl][Pt][Cl] [cisplatin, cis-diamminodichloroplatinum(II)] | completely eradicated | eradicated |  | completely eradicated | completely eradicated |  |  |  |  |  |  |  | 50 | crosslinks the same strand of DNA; also recorded: crosslinks intra-strand DNA | 
